Among the data in ChEMBL document CHEMBL1201862, “PubChem BioAssay data set” (2004) are EC50, AC50 and IC50 values, retold here.

Assay [1] has as its system HEK293. The assay can be described thus: Fluorescence-based counterscreen for potentiators or agonists of NPY-Y2: cell-based high-throughput dose response assay to identify inhibitors of cyclic nucleotide gated ion channel (CNGC) activity. In this assay, the parental HEK293 cell line transfected with a cyclic-nucleotide gated ion channel (CNGC)-based cAMP sensor is used to measure inhibition of isoproterenol-induced CNGC activity by test compound. The class given is functional. The conditions noted are these: Homo sapiens. For orientation: The purpose of a counterscreen is to sort out artefacts and off-target activity.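 Also: stimulus is 1 µM isoproterenol at EC100 plus PDE inhibitor Ro 20-1724 at 25 µM.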

Assay [2] concerns the target Neuropeptide Y receptor type 2 (Homo sapiens, UniProt P49146). The assay can be described thus: Fluorescence-based cell-based high-throughput dose response assay for agonists of NPY-Y2. [Related pubchem assays: 1703 (Screening assay (CNGC inhibitors).), 1359 (Screening assay (NPY-Y2 potentiators or agonists).), 1304 (Screening assay (NPY-Y1 potentiators or agonists).), 1710 (Screening assay (NPY-Y2 agonists).), 1791 (Summary AID.)]. The class given is functional.

Assay [3] deals with Neuropeptide Y receptor type 1 (Homo sapiens, UniProt P25929). The assay can be described thus: Fluorescence-based counterscreen for agonists of NPY-Y2: cell-based high-throughput dose response assay for agonists of NPY-Y1. Type of assay: functional.
A short description of assay [4]: Luminescence Cell-Based/Microorganism Confirmation at Dose of Inhibitors of Trypanosoma cruzi Infection. [Related pubchem assays: 1885, 1968 ]. The class given is functional.
Assay [5] is described as follows: Trypanosoma cruzi growth suppression in host cells – NIH3T3 host cells, beta-gal luminescence, confirmation (AID 2044).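 Also: intracellular parasites grown in NIH/3T3 mouse fibroblasts as host cells; luminescent beta-galactosidase reporter signal from transgenic T. cruzi replicating inside host cells; inhibitors lower the luminescence signal.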 The class given is functional, cell-based.
Assay [6] can be described thus: Luminescence Cell-Based Secondary HTS screen to identify cytotoxic compounds of NIH3T3 cells. [Related pubchem assays: 1885, 1968 ]. Type of assay: functional.
Assay [7] can be described thus: NIH3T3 cell viability loss – ATP luminescence, mouse fibroblasts, counter-screen, dose response (AID 2010).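 Also: cells exposed to compound for about 90 hours before reading.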 Type of assay: functional, cell-based.
The nature of assay [8]: T. cruzi infection blockers in NIH3T3 cells – beta-gal luminescence, NIH3T3 host cells, confirmation (AID 2630). The class given is functional, cell-based. To be noted: Mus musculus.
Assay [9] in a line: T. cruzi growth inhibition in host cells, dose response, cell-based, plate reader, dry powder, set 2 (AID 652275). The class given is functional.
Assay [10] is described as follows: anti-trypanosomal activity in BESM host cells – imaging, CA-I/72 strain, bovine embryo skeletal muscle, dry powder, dose response (AID 651885). Type of assay: functional, cell-based.
A short description of assay [11]: cells.
Assay [12] is described as follows: Counterscreen for IDE inhibitors: Luminescence-based cell-based high throughput dose response assay to identify compounds that are cytotoxic to HEK cells. [Related pubchem assays: 434962 (Primary screen (IDE inhibitors in singlicate)), 449730 (Counterscreen (Cytotoxicity in triplicate)), 435028 (Confirmation (IDE inhibitors in triplicate)) …. Type of assay: functional. The conditions noted are these: HEK293.

Assay [13] concerns the target T1, Insulin-degrading enzyme (Homo sapiens, UniProt P14735).
T1 sequence (P14735 whole entry): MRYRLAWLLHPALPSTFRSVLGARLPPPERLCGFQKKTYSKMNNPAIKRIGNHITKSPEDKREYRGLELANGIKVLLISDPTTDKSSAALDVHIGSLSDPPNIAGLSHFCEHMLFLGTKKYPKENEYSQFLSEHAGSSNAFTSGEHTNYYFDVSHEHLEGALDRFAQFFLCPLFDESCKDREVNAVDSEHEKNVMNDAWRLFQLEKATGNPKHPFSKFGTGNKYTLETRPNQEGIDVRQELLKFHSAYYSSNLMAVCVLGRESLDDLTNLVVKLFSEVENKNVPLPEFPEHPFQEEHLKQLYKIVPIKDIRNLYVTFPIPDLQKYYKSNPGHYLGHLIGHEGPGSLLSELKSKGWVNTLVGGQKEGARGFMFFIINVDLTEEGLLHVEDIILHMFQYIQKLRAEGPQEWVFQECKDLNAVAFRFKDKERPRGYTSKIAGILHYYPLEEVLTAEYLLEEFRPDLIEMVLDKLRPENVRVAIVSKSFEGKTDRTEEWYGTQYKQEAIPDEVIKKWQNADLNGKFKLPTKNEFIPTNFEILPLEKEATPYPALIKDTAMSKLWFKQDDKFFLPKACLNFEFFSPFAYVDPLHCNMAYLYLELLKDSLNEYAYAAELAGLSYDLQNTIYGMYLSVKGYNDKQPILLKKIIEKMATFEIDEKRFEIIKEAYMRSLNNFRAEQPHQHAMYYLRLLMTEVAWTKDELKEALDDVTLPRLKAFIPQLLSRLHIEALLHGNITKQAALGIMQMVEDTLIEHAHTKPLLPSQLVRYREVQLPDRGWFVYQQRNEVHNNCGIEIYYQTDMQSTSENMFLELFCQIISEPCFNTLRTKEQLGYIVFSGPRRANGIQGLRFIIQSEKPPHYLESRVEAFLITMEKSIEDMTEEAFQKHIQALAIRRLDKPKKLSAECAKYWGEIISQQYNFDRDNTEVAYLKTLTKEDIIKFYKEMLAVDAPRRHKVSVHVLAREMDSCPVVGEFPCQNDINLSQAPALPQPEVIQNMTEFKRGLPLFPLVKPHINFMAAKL
Description: Dose Response: Fluorescence polarization-based cell-based high throughput dose response assay for inhibitors of insulin-degrading enzyme (IDE). [Related pubchem assays: 434962 (Primary screen (IDE inhibitors in singlicate)), 449730 (Counterscreen (Cytotoxicity in triplicate)), 435028 (Confirmation (IDE inhibitors in triplicate)), 434984 (Summary …. Type of assay: functional.

Assay [14] deals with Serine/threonine-protein phosphatase PP1-alpha catalytic subunit (Homo sapiens, UniProt P62136). The assay can be described thus: inhibition of protein phosphatase 1 activity – biochemical, fluorescence, dose response (AID 2403).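 Also: phosphatase turnover of OMFP into fluorescent 3-O-methylfluorescein.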
For assay [15], the target named is Serine/threonine-protein phosphatase (Homo sapiens, UniProt Q9BPW0). The assay can be described thus: Counterscreen for inhibitors of PP1: fluorescence-based biochemical high throughput dose response assay to identify inhibitors of Protein Phosphatase 5 (PP5). [Related pubchem assays: 2034 (Summary (PP5 inhibitors)), 1987 (PP5 inhibitors in singlate), 2235 (PP1 inhibitors in singlate)].

Assay [16] has as its target T2, Replicative DNA helicase DnaB (Mycobacterium tuberculosis, UniProt P9WMR3).
T2 sequence (P9WMR3 whole entry): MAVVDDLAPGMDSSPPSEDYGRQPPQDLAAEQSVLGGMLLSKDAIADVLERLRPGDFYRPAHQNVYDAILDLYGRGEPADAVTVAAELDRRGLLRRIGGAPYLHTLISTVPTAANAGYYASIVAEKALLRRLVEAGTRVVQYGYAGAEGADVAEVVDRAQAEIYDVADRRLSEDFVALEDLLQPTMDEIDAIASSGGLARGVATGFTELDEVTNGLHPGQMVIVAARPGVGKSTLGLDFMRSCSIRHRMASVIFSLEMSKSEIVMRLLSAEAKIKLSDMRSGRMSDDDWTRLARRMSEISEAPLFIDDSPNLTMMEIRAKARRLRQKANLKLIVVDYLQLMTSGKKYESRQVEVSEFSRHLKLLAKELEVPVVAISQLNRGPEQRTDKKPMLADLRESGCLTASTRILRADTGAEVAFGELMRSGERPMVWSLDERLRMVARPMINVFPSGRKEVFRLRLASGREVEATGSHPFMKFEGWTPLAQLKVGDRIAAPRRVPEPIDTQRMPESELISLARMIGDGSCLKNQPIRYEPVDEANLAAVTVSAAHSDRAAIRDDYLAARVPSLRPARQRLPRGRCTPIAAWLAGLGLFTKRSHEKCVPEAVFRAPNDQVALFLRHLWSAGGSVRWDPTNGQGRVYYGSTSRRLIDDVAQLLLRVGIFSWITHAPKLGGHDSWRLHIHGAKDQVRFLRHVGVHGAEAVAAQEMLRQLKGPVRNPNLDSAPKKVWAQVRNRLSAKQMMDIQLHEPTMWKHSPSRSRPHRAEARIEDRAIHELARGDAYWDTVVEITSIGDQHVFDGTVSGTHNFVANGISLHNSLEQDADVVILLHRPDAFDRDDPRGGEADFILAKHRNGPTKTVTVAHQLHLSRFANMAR
Description: DnaB intein splicing inhibitors, dose response, biochemical, cell-free fluorescence (AID 449749). The class given is functional.

Assay [17] concerns the target T3, Protein RecA (Mycobacterium tuberculosis, UniProt P9WHJ3).
T3 sequence (P9WHJ3 whole entry): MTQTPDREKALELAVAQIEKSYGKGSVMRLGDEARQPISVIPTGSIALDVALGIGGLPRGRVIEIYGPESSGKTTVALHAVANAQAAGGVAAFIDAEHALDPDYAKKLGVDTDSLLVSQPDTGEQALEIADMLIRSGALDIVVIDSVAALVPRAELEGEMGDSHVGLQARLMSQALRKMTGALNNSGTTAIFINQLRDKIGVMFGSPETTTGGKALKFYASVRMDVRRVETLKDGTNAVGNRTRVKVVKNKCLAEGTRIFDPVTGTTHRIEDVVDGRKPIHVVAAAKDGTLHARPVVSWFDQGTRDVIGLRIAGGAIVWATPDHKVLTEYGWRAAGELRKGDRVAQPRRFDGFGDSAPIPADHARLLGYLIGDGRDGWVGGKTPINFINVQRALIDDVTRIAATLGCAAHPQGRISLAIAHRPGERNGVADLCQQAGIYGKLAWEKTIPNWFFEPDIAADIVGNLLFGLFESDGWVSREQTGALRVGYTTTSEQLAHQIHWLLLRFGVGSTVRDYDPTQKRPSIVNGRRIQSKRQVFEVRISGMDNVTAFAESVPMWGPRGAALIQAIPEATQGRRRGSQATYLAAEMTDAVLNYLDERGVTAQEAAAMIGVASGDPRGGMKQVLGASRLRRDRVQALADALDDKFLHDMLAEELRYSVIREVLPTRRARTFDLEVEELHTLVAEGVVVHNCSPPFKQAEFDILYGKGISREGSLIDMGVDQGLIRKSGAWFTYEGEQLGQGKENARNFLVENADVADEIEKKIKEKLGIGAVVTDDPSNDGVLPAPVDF
The assay can be described thus: Fluorescence Cell-Free Homogeneous Dose Retest to Identify Inhibitors of RecA-Intein Splicing Activity. [Related pubchem assays (depositor defined):AID2097, AID2223, AID489010, AID492950]. Type of assay: functional.

Assay [18] has as its target Genome polyprotein (dengue virus type 2, UniProt P29990). The assay can be described thus: flavivirus cap methylation enzyme inhibition – biochemical, confirmation dose response, primary screen (AID 588689). The class given is functional.
The target in assay [19] is Dual specificity tyrosine-phosphorylation-regulated kinase 1A (Rattus norvegicus, UniProt Q63470). The class given is biochemical, Homo sapiens.
Assay [20] is described as follows: mitochondrial function rescue without frataxin homolog – Friedreich's ataxia, plus single-dose screen, dose response (AID 1465).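 Also: yeast depleted of Yfh1p frataxin homolog grown on glycerol needing respiration; WST-1 tetrazolium dye reduction as measure of cellular dehydrogenase metabolic activity.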 Type of assay: functional.
The target in assay [21] is Inward rectifier potassium channel 2 (Mus musculus, UniProt P35561). Description: Manual electrophysiological patch clamp assay for SAR compounds that inhibit/block inward-rectifying potassium ion channel Kir2.1. [Related pubchem assays: 1843 (Summary assay for Kir2.1 inhibitor assays.), 1672 (Primary HTS of 305616 compounds where 2592 were identified as active.)]. Type of assay: functional. (Patch clamp records ionic current or voltage across a cell membrane.)

In assay [22] the target is T4, Bcl-2-like protein 10 (Homo sapiens, UniProt Q9HD36).
T4 sequence (Q9HD36 whole entry): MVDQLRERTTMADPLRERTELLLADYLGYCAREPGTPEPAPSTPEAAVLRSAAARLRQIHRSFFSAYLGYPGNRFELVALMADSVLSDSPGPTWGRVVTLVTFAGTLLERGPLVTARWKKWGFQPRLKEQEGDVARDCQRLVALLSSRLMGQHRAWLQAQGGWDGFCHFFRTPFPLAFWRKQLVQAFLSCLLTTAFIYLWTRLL
The assay can be described thus: Concentration-response of Bcl-B inhibitors by biochemical FP with TR3 (AID 1243). The class given is functional.

Assay [23] has as its target T5, Heat shock 70 kDa protein 1A (Homo sapiens, UniProt P0DMV8). The assay can be described thus: small-molecule inhibition of Hsp70 – biochemical, TR-FRET (AID 786). Background: Time-resolved FRET reads energy transfer from a long-lived donor to a nearby acceptor.
In assay [24] the target is T5, Heat shock 70 kDa protein 1A. The assay can be described thus: small molecules displacing fluorescent ligand from Hsp70 – biochemical, fluorescence polarization, primary screen (AID 583).

Calls of active or inactive are those of the source.

T5 sequence (P0DMV8 whole entry): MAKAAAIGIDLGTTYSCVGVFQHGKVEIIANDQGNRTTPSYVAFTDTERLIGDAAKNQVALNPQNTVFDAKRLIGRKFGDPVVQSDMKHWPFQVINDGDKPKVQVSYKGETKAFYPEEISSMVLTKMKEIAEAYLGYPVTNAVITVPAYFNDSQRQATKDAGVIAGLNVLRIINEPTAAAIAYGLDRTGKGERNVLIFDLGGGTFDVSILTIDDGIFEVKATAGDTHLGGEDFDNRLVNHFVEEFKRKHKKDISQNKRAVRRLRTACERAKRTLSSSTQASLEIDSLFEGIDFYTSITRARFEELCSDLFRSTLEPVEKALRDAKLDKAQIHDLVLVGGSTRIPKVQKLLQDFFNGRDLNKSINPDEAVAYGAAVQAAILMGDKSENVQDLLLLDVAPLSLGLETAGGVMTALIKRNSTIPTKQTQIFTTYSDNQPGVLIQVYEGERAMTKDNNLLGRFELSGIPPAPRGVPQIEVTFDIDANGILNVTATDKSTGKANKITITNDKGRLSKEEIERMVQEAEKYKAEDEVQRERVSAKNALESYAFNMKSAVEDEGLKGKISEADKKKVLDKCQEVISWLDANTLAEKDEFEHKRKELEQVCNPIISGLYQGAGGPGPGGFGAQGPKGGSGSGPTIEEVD
Inward rectifier potassium channel 2, sequence (P35561 whole entry): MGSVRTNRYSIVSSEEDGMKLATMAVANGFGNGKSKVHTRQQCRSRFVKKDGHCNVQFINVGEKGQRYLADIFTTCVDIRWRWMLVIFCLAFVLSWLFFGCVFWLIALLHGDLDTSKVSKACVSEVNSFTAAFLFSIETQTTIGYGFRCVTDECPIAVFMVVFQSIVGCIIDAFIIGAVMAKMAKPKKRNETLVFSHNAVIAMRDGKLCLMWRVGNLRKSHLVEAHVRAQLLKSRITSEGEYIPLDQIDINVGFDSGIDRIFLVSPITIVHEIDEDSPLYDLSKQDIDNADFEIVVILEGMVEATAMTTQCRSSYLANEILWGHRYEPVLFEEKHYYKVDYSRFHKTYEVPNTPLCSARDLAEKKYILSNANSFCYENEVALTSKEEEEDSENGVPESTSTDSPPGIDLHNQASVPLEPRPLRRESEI
Serine/threonine-protein phosphatase, sequence (Q9BPW0 whole entry): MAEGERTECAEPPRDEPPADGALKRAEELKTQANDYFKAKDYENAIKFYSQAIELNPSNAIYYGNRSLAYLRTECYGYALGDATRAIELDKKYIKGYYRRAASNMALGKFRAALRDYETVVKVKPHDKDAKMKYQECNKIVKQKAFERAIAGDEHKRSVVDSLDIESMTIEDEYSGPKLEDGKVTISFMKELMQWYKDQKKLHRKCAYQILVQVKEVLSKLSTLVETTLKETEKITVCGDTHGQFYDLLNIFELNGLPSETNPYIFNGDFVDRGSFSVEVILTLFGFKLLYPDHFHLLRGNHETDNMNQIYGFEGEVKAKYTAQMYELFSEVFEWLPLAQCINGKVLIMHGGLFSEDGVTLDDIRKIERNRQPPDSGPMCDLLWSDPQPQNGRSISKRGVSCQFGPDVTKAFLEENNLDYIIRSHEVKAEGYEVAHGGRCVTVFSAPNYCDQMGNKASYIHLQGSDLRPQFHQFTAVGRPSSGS
Genome polyprotein, sequence (P29990 2492-3391 limits assumed): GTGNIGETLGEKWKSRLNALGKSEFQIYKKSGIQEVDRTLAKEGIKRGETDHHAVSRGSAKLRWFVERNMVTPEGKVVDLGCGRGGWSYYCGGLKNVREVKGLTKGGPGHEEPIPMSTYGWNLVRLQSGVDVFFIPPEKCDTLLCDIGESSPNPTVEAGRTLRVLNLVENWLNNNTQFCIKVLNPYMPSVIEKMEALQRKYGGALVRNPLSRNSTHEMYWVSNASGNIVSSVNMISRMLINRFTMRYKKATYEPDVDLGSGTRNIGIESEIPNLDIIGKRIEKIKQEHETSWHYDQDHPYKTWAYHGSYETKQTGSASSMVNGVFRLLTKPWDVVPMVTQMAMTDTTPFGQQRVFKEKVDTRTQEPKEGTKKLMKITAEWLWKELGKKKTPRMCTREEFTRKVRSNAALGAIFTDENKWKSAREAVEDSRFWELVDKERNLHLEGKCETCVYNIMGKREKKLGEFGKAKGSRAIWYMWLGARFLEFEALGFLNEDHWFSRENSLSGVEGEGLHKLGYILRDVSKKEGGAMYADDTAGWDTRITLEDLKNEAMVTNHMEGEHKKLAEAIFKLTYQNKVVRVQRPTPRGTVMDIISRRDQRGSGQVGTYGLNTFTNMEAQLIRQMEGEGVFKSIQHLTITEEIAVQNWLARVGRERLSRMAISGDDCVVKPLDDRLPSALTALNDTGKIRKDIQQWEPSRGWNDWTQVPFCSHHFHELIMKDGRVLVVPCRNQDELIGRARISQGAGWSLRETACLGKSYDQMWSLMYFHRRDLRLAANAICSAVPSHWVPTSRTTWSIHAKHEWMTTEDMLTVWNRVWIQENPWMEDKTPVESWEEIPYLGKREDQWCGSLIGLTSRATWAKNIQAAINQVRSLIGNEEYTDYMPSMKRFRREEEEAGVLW
Neuropeptide Y receptor type 2, sequence (P49146 whole entry): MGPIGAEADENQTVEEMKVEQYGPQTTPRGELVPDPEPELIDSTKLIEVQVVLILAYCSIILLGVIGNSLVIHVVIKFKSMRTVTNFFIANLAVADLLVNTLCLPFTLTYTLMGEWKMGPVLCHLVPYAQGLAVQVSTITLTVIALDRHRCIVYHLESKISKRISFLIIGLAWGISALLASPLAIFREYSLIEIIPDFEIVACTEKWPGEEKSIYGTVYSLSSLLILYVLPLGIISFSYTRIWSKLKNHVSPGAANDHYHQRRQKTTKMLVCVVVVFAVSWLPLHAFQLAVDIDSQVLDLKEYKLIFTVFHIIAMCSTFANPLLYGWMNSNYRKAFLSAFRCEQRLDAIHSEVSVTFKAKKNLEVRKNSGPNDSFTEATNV
Neuropeptide Y receptor type 1, sequence (P25929 whole entry): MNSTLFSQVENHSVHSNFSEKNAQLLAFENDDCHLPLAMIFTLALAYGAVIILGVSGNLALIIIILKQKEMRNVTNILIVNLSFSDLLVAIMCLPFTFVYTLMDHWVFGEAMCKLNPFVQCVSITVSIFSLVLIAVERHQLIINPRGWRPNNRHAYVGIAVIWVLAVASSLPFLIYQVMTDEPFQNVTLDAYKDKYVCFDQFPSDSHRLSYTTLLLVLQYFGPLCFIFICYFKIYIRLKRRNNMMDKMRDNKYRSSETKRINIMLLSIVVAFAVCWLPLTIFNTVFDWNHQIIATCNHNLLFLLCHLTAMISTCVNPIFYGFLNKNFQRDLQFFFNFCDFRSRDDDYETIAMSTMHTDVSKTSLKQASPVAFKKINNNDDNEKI
Serine/threonine-protein phosphatase PP1-alpha catalytic subunit, sequence (P62136 whole entry): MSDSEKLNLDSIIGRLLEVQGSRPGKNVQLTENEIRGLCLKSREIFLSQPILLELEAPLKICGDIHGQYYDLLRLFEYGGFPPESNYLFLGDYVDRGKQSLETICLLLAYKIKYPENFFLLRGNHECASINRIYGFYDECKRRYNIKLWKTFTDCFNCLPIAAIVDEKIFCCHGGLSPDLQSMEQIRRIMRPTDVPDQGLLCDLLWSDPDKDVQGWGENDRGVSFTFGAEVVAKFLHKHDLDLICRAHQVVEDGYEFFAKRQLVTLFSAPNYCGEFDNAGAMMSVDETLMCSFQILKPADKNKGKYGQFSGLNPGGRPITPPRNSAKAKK

Broadly, the EC50 is the concentration that produces a half-maximal response. On to `Cc1sc2nc(SCc3ccc(C(=O)O)cc3)n(Cc3ccco3)c(=O)c2c1C`, for which the concentration giving a half-maximal response (EC50) in [1], in assay [2] and in [3] was > 35.4 µM (not active) in each case.

As a reminder, the AC50 is the concentration giving half of the maximal activity seen. A word on the IC50: it is the concentration that inhibits the measured activity by half. With `CCCn1ncc(CN2CCCC(C(=O)c3cccc(OC(C)C)c3)C2)c1C` (centres undefined), the EC50 in assay [4] was 0.047 µM (active); in assay [5], < 0.1 µM (active); in [6], > 195 µM (not active); in assay [7] it was > 60 µM (not active); in [8] it was 0.047 µM (active); in assay [11], 0.054 µM (active). In addition, the AC50 in [9] was 0.0589 µM (active). In addition, the IC50 in [10] is > 20 µM (inactive).

Consider `CCCN1C(=O)/C(=C/c2ccc(N3CCOCC3)cc2)NC1=S`, for which the IC50 in [12] is 19 µM (not active); in assay [13] it was 33.1 µM (not active).

As for `O=C(O)CC1OCC=C2CN3CCC45C6=CC(=O)C(O)=C([N+](=O)[O-])C6=NC4C1C2CC35` (centres undefined), the IC50 was 1.97 µM (active) in [14], > 0.276 µM (active) in [15] and > 100 µM (active) in assay [18]. Moreover, the AC50 was 6.67 µM (active) in assay [16] and 3.17 µM (active) in assay [19]. For the same compound, the EC50 in [17] was 7.02 µM (active).

Turning to `COc1ccc(C2(c3ccc(O)cc3O)CC(c3ccccc3Cl)N=C(S)N2)cc1` (centres undefined), the concentration for a half-maximal effect (EC50) in assay [20] is > 100 µM (active).

For `COc1ccc(CNCc2cccc(Cl)c2)cc1`, in assay [21], the IC50 was 1.12 µM (active).

As for `Cc1ccc2oc3cc(NCCCN(C)C)c4c(=O)c5ccccc5c(=O)c4c3[nH]c2c1`, in assay [22], the EC50 is 0.67 µM (active).

Take `Cc1cc(NC(=O)CSc2ncnc3ccccc23)no1`: the IC50 in assay [23] and in assay [24] was > 100 µM (not active) in each case.
